The source of these data is patent US5356907A, “1-cycloalkylpyridones as analgesics” (priority 1989, dated 1994).

One test concerns the target T1, opiated K Receptor (Cavia porcellus, UniProt P41144).
T1 construct: Membrane samples preserved at -30° C; (optionally for approximately 30 days) are used and prepared from guinea pig brains; from tissue; host or cells: guinea pig brain membranes
Description: Bonding to the opiated K Receptor in Vitro. The following applies: displacement of 1 nM 3H-ethylketocyclazocin, guinea pig brain membranes, Tris pH 7.7, 25° C., 40 minutes. It is filed as binding. How it is done:
1) Bonding to the opiated K Receptor in Vitro
Membrane samples preserved at -30° C. (optionally for approximately 30 days) are used and prepared from guinea pig brains.
These samples are put in suspension in Tris pH 7.7 buffer. Fractions of 2 cm^3 are distributed in hemolysis tubes and 1 nM of 9^3 H-ethylketocyclazocin and the product to be studied are added. The product is first tested at 5×10^-6 M (in triplicate). When the test product displaces more than 50% of the radioactivity linked specifically to the receptor, it is tested again according to a range of 7 doses so as to determine the dose that inhibits 50% of the radioactivity linked specifically to the receptor. Thus the 50% inhibiting concentration is determined.
The non-specific bond is determined by the addition of known product under the name U-50488 H (Lahti et al. 1982, Life Sci. 31, 2257) at 10^-5 M (in triplicate). After incubating at 25° C. for 40 minutes, returning to the water bath at 0° C. for 5 minutes, filtering under vacuum, rinsing with Tris pH 7.7 buffer, the radioactivity is counted in the presence of Trition scintillator.
The result is expressed directly as 50% inhibiting concentration (IC50), namely as the concentration of studied product expressed in nM, necessary to displace 50% of the radioactivity specifically fixed on the studied receptor.

For a further test, the system named is cardiac rhythm disorders. Nature of the test: Anti-arythmic action in the rat (aconitine perfusion). As to conditions: intravenous, 5 minutes before aconitine 10 micrograms/mn, anaesthetised male rat. It is filed as in vivo. How it is done: 2) Anti-arythmic action in the rat
Male rate weighing 300-350 g anaesthetised by interperitonal route using 1.20 g/kg of urethane are tracheotomized and subjected to artificial respiration (40-50 insufflations of 3 ml/minute).
needles are implanted subcutaneously so as to record the rats' electrocardiogram on the DII derivation signal.
The test products are administered by intravenous route. Five minutes after administration of the product, the jugular vein is perfused with aconitine at the rate of 10 micrograms/mn and the time taken for the appearance of cardiac rhythm disorders is noted.
The results are expressed as a percentage of the increase in the time taken for cardiac rhythm disorders to appear relative to the controls and according to the dose of the test product.

T1 sequence (P41144 whole entry): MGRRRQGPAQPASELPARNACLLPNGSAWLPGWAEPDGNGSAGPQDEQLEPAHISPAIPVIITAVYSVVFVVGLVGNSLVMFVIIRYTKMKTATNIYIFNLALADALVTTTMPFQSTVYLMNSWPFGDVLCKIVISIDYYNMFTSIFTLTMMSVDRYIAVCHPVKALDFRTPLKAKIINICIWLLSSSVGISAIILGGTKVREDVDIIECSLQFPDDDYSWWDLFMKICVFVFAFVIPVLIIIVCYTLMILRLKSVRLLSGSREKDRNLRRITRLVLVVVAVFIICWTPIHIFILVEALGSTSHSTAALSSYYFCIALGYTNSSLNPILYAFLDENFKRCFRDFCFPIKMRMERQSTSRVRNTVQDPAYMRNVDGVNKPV

The IC50 is the concentration that gives 50% inhibition. The molecule `O=C1C(c2ccc(Cl)c(Cl)c2)CCCN1[C@@H]1CCCC[C@H]1N1CCCC1` (mixture of isomers) [Example 4, [Trans, (±)]-3-(3,4-dichlorophenyl)-1-[2-(1-pyrrolidinyl)-cyclohexyl]-2piperidinone] gave an IC50 on opiated K Receptor of 22 nM. The “Percentage increase in time (taken for cardiac rhythm disorders to appear relative to the controls)” value in the test on cardiac rhythm disorders (dose 2.5 mg/kg, 2.5 mg/kg) worked out at 23%; with cardiac rhythm disorders (dose 5 mg/kg, 5 mg/kg), 48%.

For the molecule `O=C1C(c2ccc(Cl)c(Cl)c2)CCCN1[C@@H]1CCCC[C@H]1N1CCCC1` (mixture of isomers) [Example 5, [Trans, (±)]-3-(3,4-dichlorophenyl)-1-[2-(1-pyrrolidinyl)-cyclohexyl]-2-piperidinone], the “Percentage increase in time (taken for cardiac rhythm disorders to appear relative to the controls)” value in the test with cardiac rhythm disorders (dose 2.5 mg/kg, 2.5 mg/kg) is listed as 26%; in the test on cardiac rhythm disorders (dose 5 mg/kg, 5 mg/kg), 33%.

Turning to `COc1ccc(C2C(=O)CCN([C@@H]3CCCC[C@H]3N3CCCC3)C2=O)cc1OC` (mixture of isomers) [Example 7, [Trans,(±)]-3-(3,4-dimethoxy-phenyl)-1-[2-(1-pyrrolidinyl)-cyclohexyl]-2,4-piperidinedione], the IC50 at opiated K Receptor amounted to 0.2 nM.

With `O=C1C(c2ccc(Cl)c(Cl)c2)=CCCN1[C@@H]1CCCC[C@H]1N1CCCC1` (relative stereo) [Example 3, [Trans, (±)]-3-(3,4-dichlorophenyl)-5,6-dihydro-1-[2-(1-pyrrolidinyl)cyclohexyl)-2-(1H)-pyridinone], the “Percentage increase in time (taken for cardiac rhythm disorders to appear relative to the controls)” value was found to be 52% in the test on cardiac rhythm disorders (dose 2.5 mg/kg) and 55% in the test on cardiac rhythm disorders (dose 5 mg/kg).

As for `COc1ccc(C2=CCCN([C@@H]3CCCC[C@H]3N3CCCC3)C2=O)cc1OC` (relative stereo) [Example 8, [Trans-(±)]-5,6-dihydro-3-(3,4-dimethoxyphenyl)-1-[2(1-pyrrolidinyl)-cyclohexyl]-2-[1H)-pyridinone], the IC50 at opiated K Receptor was determined as 9 nM.
